Data taken from patent US20250135022A1, “METHODS FOR THE USE OF A B7-H3 ANTIBODY-DRUG CONJUGATE IN COMBINATION WITH A PD-1 X CTLA-4 BISPECIFIC MOLECULE” (MACROGENICS, INC., priority 2022, published 2025).

Legend:
[1] = tested on: MDA-MB-468 triple negative breast cancer cells; experiment: Anti-tumor activity against subcutaneously implanted MDA-MB-468 xenograft in SCID CES1c-KO mouse model; type: in vivo, SCID CES1c-KO mice; design: key to Anti-Tumor Activity: Highly Active: A T/C<10% is considered highly active; Active: a T/C≤42% is the minimum level of anti-tumor activity; Inactive: a T/C value of >42% is inactive
Method: In brief, ˜5×10^6 tumor cells (suspended in 1:1 media and MATRIGEL®) were subcutaneously implanted into the flank of female SCID CES1c-KO mice (Charles River Laboratories). When tumors had reached a volume of approximately 45-135 mm^3 (average 73 mm^3) on day 54, the mice were randomized and MGC018 or control vehicle were administered intravenously. In these studies, mice were administered either a single dose (1 mg/kg or 3 mg/kg, QW×1) of MGC018 or a fractionated dose of MGC018 (0.3 mg/kg or 1 mg/kg) once a week for 4 weeks (QW×4W). Vehicle was administered as a control on day 54. Tumors were measured twice weekly by orthogonal measurements with electronic calipers, with tumor volumes calculated as: (length×width×height)/2. The tumor volume (relative to control) was determined (“T/C”). A finding that the tumor volume of treated animals had decreased to ≤5 mm^3 during the study period was considered to denote a Complete Regression (“CR”) and a Partial Regression (“PR”) was defined when tumors were reduced by 50% or greater from day of dosing at any point during the study.

[2] = Population pharmacokinetic (PPK) modeling of clinical PK data from a dose escalation trial; type: in vivo, human
Method: To analyze the pharmacokinetics of single and fractionated dose administration of MGC018, population pharmacokinetic (PPK) modeling was performed on clinical PK data from a dose escalation trial of MGC018. The initial model was based on data from 52 patients (516 ADC observations, 495 payload observations) and later updated with data from a total of 122 patients. MGC018 concentration values below quantification limit (BQL) were excluded from the analysis but were retained (commented out) in the data set.
The PPK analysis was conducted via nonlinear mixed-effects modeling with INTERACTION option (FOCEI) method using the NONMEM software, Version 7.5.0 (ICON Development Solutions). A quasi-steady-state (QSS) approximation of the target-mediated drug disposition (TMDD) model was used to describe the observed ADC data. All clearance and volume parameters were scaled allometrically. Goodness-of-fit plots and diagnostics (including standard error of the estimates) were used to evaluate the model fit. Due to the small sample size (52 subjects) no formal covariate analysis was attempted, although dependence of model parameters on weight, dose, and sex was investigated using diagnostic plots or by inclusion in the model. Ability of the model to describe strong covariate relationships identified by the model was tested by stratifying the diagnostic plots and model evaluation procedures by the covariates of interest. Specifically, the diagnostics and the predictive check procedures were stratified by dose (cohort).
Of the models evaluated, a linear 2-compartment with individual random effects on clearance (CL), central volume (Vc), peripheral volume (VP), inter-compartment clearance (Q), and proportional residual variability) best described the observed ADC data and advanced for further development of the combined ADC-free payload model. The free payload was described by a 1-compartment model with random effects on free payload clearance (CLTOX) and volume (VTOX) parameters with the input (from ADC) to both the central and delay compartments, with the random effects on the delay rate constant Ktr, CLTOX, and VTOX. The final model (Model 151) was selected based on diagnostics and goodness-of-fit and used to estimate MGC018 PK parameters. According to the model, elimination from the ADC was directed to the free payload, to the delay and central free payload compartments. Approximately equal fractions of ADC elimination went to each of these compartments. […] Thus, the free payload kinetics were defined by the kinetics of ADC and delay between ADC elimination and input to the free payload central compartment

[3] = 0.3 mg/kg, QW × 4W, intravenous

MGC018: B7-H3-ADC: Light and Heavy Chain of anti-B7-H3 hmAb-A (SEQ ID NO:19, 20) conjugated via maleimide, valine-citrulline, para-aminobenzyloxycarbonyl linker to seco-DUBA payload
% T/C at Day 70 [1, 3]: 64% | Anti-Tumor Activity [1, 3]: Inactive | CR (complete regression) [1, 3]: 0/5 | PR (partial regression) [1, 3]: 2/5 | % T/C at Day 70 ([1]; 1 mg/kg, QW × 1, intravenous): 26% | Anti-Tumor Activity ([1]; 1 mg/kg, QW × 1, intravenous): Active | CR (complete regression) ([1]; 1 mg/kg, QW × 1, intravenous): 0/5 | PR (partial regression) ([1]; 1 mg/kg, QW × 1, intravenous): 4/5 | % T/C at Day 70 ([1]; 1 mg/kg, QW × 4W, intravenous): 22% | Anti-Tumor Activity ([1]; 1 mg/kg, QW × 4W, intravenous): Active | CR (complete regression) ([1]; 1 mg/kg, QW × 4W, intravenous): 3/5 | PR (partial regression) ([1]; 1 mg/kg, QW × 4W, intravenous): 5/5 | % T/C at Day 70 ([1]; 3 mg/kg, QW × 1, intravenous): 12% | Anti-Tumor Activity ([1]; 3 mg/kg, QW × 1, intravenous): Active | CR (complete regression) ([1]; 3 mg/kg, QW × 1, intravenous): 5/5 | PR (partial regression) ([1]; 3 mg/kg, QW × 1, intravenous): 5/5 | anti-tumor activity of fractionated dose compared with single dose ([1]; fractionated 0.3 and 1 mg/kg QW×4W vs single 1 or 3 mg/kg QW×1): near equivalent anti-tumor activity | central volume (V) ([2]; ADC, typical 75 kg subject): 3.72 L | clearance (CL) ([2]; ADC, typical 75 kg subject): 1.68 L/day | distribution half-life (t1/2 dist) ([2]; ADC, typical 75 kg subject): 35.5 h | inter-compartment clearance (Q) ([2]; ADC, typical 75 kg subject): 0.0549 L/day | peripheral volume (Vp) ([2]; ADC, typical 75 kg subject): 0.700 L | terminal half-life (t1/2 term) ([2]; ADC, typical 75 kg subject): 220 h | half-life corresponding to delay rate constant ([2]; Model 151): 130 h | delay rate constant (Ktr) ([2]; delay between ADC elimination and input to free payload central compartment, Model 151): 0.128 day⁻¹ | free payload elimination rate constant KTOX=CLTOX/VTOX ([2]; free payload, Model 151): 52.5 day⁻¹ | half-life corresponding to free payload elimination rate constant ([2]; free payload, Model 151): about 20 minutes
